Patent US20250114460A1, “NOVEL PLK1 DEGRADATION INDUCING COMPOUND” (UPPTHERA, INC., priority 2021, published 2025)

The compounds below were run against T1, PLK1 (Homo sapiens, UniProt P53350) (assay: Luciferase assay for PLK1 in HeLa LgBit (Plk1-HiBit KI) cell line). Conditions: 300 nM compound, luminescence after 9 hours.
T1 construct: endogenous in cells; host or cells: HeLa LgBit (Plk1-HiBit KI): HeLa stably expressing LgBit, with a CRISPR/Cas9 knock-in of HiBit at the endogenous PLK1 locus
T1 sequence (P53350 whole entry): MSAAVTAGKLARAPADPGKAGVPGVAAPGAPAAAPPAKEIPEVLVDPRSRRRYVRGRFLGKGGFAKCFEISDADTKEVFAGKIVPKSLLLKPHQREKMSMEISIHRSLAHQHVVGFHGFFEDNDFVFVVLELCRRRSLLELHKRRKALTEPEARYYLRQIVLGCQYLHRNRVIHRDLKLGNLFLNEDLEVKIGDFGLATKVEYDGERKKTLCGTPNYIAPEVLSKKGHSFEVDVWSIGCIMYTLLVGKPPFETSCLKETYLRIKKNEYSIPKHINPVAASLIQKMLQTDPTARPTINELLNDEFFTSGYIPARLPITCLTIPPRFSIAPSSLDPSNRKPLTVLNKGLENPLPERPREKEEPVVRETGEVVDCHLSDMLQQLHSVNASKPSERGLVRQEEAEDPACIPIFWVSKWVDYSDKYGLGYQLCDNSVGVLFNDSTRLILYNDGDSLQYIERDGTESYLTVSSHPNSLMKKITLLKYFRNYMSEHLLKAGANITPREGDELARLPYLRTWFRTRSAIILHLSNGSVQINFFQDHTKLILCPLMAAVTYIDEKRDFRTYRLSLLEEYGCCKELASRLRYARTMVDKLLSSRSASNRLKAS
Format: cell-based
Method in brief: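 HeLa cells stably expressing LgBit, with HiBit knocked in at the C-terminus of endogenous Plk1, released from a 24 h 2 mM thymidine block and grown 18 h. Endurazine added, then compound at 300 nM; luminescence tracked in real time, expressed as ratio to DMSO.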
In the case of COc1cc(C(=O)NC2CCN(C(=O)CC[C@@H]3CN(Cc4cccc5c4C(=O)N(C4CCC(=O)NC4=O)C5=O)CCO3)CC2)ccc1Nc1ncc2c(n1)N(C1CCCC1)CC(F)(F)C(=O)N2C (stereo partly drawn) [Compound 173, 4-((9-cyclopentyl-7,7-difluoro-5-methyl-6-oxo-6,7,8,9-tetrahydro-5H-pyrimido[4,5-b][1,4]diazepin-2-yl)amino)-N-(1-(3-((2R)-4-((2-(2,6-dioxopiperidin-3-yl)-1,3-dioxoisoindolin-4-yl)methyl)morpholin-2-yl)propanoyl)piperidin-4-yl)-3-methoxybenzamide], the “Activity: ratio of the luminescense value of each Exemplary Compound treatment group to DMSO treatment group” value (“Activity: ratio” for short) is reported as “+ (+<0.7)”. For COc1cc(C(=O)NC2CCN(C(=O)CC[C@H]3CN(Cc4cccc5c4C(=O)N(C4CCC(=O)NC4=O)C5=O)CCO3)CC2)ccc1Nc1ncc2c(n1)N(C1CCCC1)CC(F)(F)C(=O)N2C (stereo partly drawn) [Compound 174, 4-((9-cyclopentyl-7,7-difluoro-5-methyl-6-oxo-6,7,8,9-tetrahydro-5H-pyrimido[4,5-b][1,4]diazepin-2-yl)amino)-N-(1-(3-((2S)-4-((2-(2,6-dioxopiperidin-3-yl)-1,3-dioxoisoindolin-4-yl)methyl)morpholin-2-yl)propanoyl)piperidin-4-yl)-3-methoxybenzamide], the “Activity: ratio” value was “++ (++<0.6)”. With COc1cc(C(=O)NC2CCN(C(=O)CCC#Cc3cccc4c3C(=O)N(C3CCC(=O)NC3=O)C4=O)CC2)ccc1Nc1ncc2c(n1)N(C1CCCC1)CC(F)(F)C(=O)N2C (stereo not drawn) [Compound 179, 4-((9-cyclopentyl-7,7-difluoro-5-methyl-6-oxo-6,7,8,9-tetrahydro-5H-pyrimido[4,5-b][1,4]diazepin-2-yl)amino)-N-(1-(5-(2-(2,6-dioxopiperidin-3-yl)-1,3-dioxoisoindolin-4-yl)pent-4-ynoyl)piperidin-4-yl)-3-methoxybenzamide] the “Activity: ratio” value was “++ (++<0.6)”. For COc1cc(C(=O)NC2CCN(C(=O)CCCC#Cc3cccc4c3C(=O)N(C3CCC(=O)NC3=O)C4=O)CC2)ccc1Nc1ncc2c(n1)N(C1CCCC1)CC(F)(F)C(=O)N2C (stereo not drawn) [Compound 180, 4-((9-cyclopentyl-7,7-difluoro-5-methyl-6-oxo-6,7,8,9-tetrahydro-5H-pyrimido[4,5-b][1,4]diazepin-2-yl)amino)-N-(1-(6-(2-(2,6-dioxopiperidin-3-yl)-1,3-dioxoisoindolin-4-yl)hex-5-ynoyl)piperidin-4-yl)-3-methoxybenzamide], the “Activity: ratio” value was “++ (++<0.6)”. With COc1cc(C(=O)N2CCN(CCCNc3cccc4c3C(=O)N(C3CCC(=O)NC3=O)C4=O)CC2)c(F)cc1Nc1ncc2c(n1)N(C1CCCC1)CC(F)(F)C(=O)N2C (stereo not drawn) [Compound 183, 4-((3-(4-(4-((9-cyclopentyl-7,7-difluoro-5-methyl-6-oxo-6,7,8,9-tetrahydro-5H-pyrimido[4,5-b][1,4]diazepin-2-yl)amino)-2-fluoro-5-methoxybenzoyl)piperazin-1-yl)propyl)amino)-2-(2,6-dioxopiperidin-3-yl)isoindoline-1,3-dione] the “Activity: ratio” value was “+ (+<0.7)”. With COc1cc(C(=O)N2CCN(CCCCNc3cccc4c3C(=O)N(C3CCC(=O)NC3=O)C4=O)CC2)c(F)cc1Nc1ncc2c(n1)N(C1CCCC1)CC(F)(F)C(=O)N2C (stereo not drawn) [Compound 184, 4-((4-(4-(4-((9-cyclopentyl-7,7-difluoro-5-methyl-6-oxo-6,7,8,9-tetrahydro-5H-pyrimido[4,5-b][1,4]diazepin-2-yl)amino)-2-fluoro-5-methoxybenzoyl)piperazin-1-yl)butyl)amino)-2-(2,6-dioxopiperidin-3-yl)isoindoline-1,3-dione] the “Activity: ratio” value was “+ (+<0.7)”. With COc1cc(C(=O)N2CCN(CCCNc3ccc4c(c3)C(=O)N(C3CCC(=O)NC3=O)C4=O)CC2)c(F)cc1Nc1ncc2c(n1)N(C1CCCC1)CC(F)(F)C(=O)N2C (stereo not drawn) [Compound 186, 5-((3-(4-(4-((9-cyclopentyl-7,7-difluoro-5-methyl-6-oxo-6,7,8,9-tetrahydro-5H-pyrimido[4,5-b][1,4]diazepin-2-yl)amino)-2-fluoro-5-methoxybenzoyl)piperazin-1-yl)propyl)amino)-2-(2,6-dioxopiperidin-3-yl)isoindoline-1,3-dione] the “Activity: ratio” value was “++ (++<0.6)”. COc1cc(C(=O)N2CCN(CCCCNc3ccc4c(c3)C(=O)N(C3CCC(=O)NC3=O)C4=O)CC2)c(F)cc1Nc1ncc2c(n1)N(C1CCCC1)CC(F)(F)C(=O)N2C (stereo not drawn) [Compound 187, 5-((4-(4-(4-((9-cyclopentyl-7,7-difluoro-5-methyl-6-oxo-6,7,8,9-tetrahydro-5H-pyrimido[4,5-b][1,4]diazepin-2-yl)amino)-2-fluoro-5-methoxybenzoyl)piperazin-1-yl)butyl)amino)-2-(2,6-dioxopiperidin-3-yl)isoindoline-1,3-dione] was tested, and the “Activity: ratio” value was “+ (+<0.7)”. In the case of COc1cc(C(=O)N2CCC(N3CCN(CCOCCNc4cccc5c4C(=O)N(C4CCC(=O)NC4=O)C5=O)CC3)CC2)c(F)cc1Nc1ncc2c(n1)N(C1CCCC1)CC(F)(F)C(=O)N2C (stereo not drawn) [Compound 189, 4-((2-(2-(4-(1-(4-((9-cyclopentyl-7,7-difluoro-5-methyl-6-oxo-6,7,8,9-tetrahydro-5H-pyrimido[4,5-b][1,4]diazepin-2-yl)amino)-2-fluoro-5-methoxybenzoyl)piperidin-4-yl)piperazin-1-yl)ethoxy)ethyl)amino)-2-(2,6-dioxopiperidin-3-yl)isoindoline-1,3-dione], the “Activity: ratio” value is reported as “++ (++<0.6)”. For COc1cc(C(=O)N2CCC(N3CCN(CCOCCNc4ccc5c(c4)C(=O)N(C4CCC(=O)NC4=O)C5=O)CC3)CC2)c(F)cc1Nc1ncc2c(n1)N(C1CCCC1)CC(F)(F)C(=O)N2C (stereo not drawn) [Compound 191, 5-((2-(2-(4-(1-(4-((9-cyclopentyl-7,7-difluoro-5-methyl-6-oxo-6,7,8,9-tetrahydro-5H-pyrimido[4,5-b][1,4]diazepin-2-yl)amino)-2-fluoro-5-methoxybenzoyl)piperidin-4-yl)piperazin-1-yl)ethoxy)ethyl)amino)-2-(2,6-dioxopiperidin-3-yl)isoindoline-1,3-dione], the “Activity: ratio” value was “++ (++<0.6)”. In the case of COc1cc(C(=O)N2CCC(N3CCN(CCOCCCNc4ccc5c(c4)C(=O)N(C4CCC(=O)NC4=O)C5=O)CC3)CC2)c(F)cc1Nc1ncc2c(n1)N(C1CCCC1)CC(F)(F)C(=O)N2C (stereo not drawn) [Compound 192, 5-((3-(2-(4-(1-(4-((9-cyclopentyl-7,7-difluoro-5-methyl-6-oxo-6,7,8,9-tetrahydro-5H-pyrimido[4,5-b][1,4]diazepin-2-yl)amino)-2-fluoro-5-methoxybenzoyl)piperidin-4-yl)piperazin-1-yl)ethoxy)propyl)amino)-2-(2,6-dioxopiperidin-3-yl)isoindoline-1,3-dione], the “Activity: ratio” value is reported as “++ (++<0.6)”. For COc1cc(C(=O)NC2CCC(N3CCN(CCOCCNc4ccc5c(c4)C(=O)N(C4CCC(=O)NC4=O)C5=O)CC3)CC2)c(F)cc1Nc1ncc2c(n1)N(C1CCCC1)CC(F)(F)C(=O)N2C (stereo not drawn) [Compound 193, 4-((9-cyclopentyl-7,7-difluoro-5-methyl-6-oxo-6,7,8,9-tetrahydro-5H-pyrimido[4,5-b][1,4]diazepin-2-yl)amino)-N-((1r,4r)-4-(4-(2-(2-((2-(2,6-dioxopiperidin-3-yl)-1,3-dioxoisoindolin-5-yl)amino)ethoxy)ethyl)piperazin-1-yl)cyclohexyl)-2-fluoro-5-methoxybenzamide], the “Activity: ratio” value was “++ (++<0.6)”. COc1cc(C(=O)N[C@H]2CC[C@H](N3CCN(CCNc4cccc5c4C(=O)N(C4CCC(=O)NC4=O)C5=O)CC3)CC2)c(F)cc1Nc1ncc2c(n1)N(C1CCCC1)CC(F)(F)C(=O)N2C (stereo partly drawn) [Compound 196, 4-((9-cyclopentyl-7,7-difluoro-5-methyl-6-oxo-6,7,8,9-tetrahydro-5H-pyrimido[4,5-b][1,4]diazepin-2-yl)amino)-N-((1r,4r)-4-(4-(2-((2-(2,6-dioxopiperidin-3-yl)-1,3-dioxoisoindolin-4-yl)amino)ethyl)piperazin-1-yl)cyclohexyl)-2-fluoro-5-methoxybenzamide] was tested, and the “Activity: ratio” value was “++ (++<0.6)”. With COc1cc(C(=O)N[C@H]2CC[C@H](N3CCN(CCOCCOc4cccc5c4CN(C4CCC(=O)NC4=O)C5=O)CC3)CC2)ccc1Nc1ncc2c(n1)N(C1CCCC1)CC(F)(F)C(=O)N2C (stereo partly drawn) [Compound 198, 4-((9-cyclopentyl-7,7-difluoro-5-methyl-6-oxo-6,7,8,9-tetrahydro-5H-pyrimido[4,5-b][1,4]diazepin-2-yl)amino)-N-((1r,4r)-4-(4-(2-(2-((2-(2,6-dioxopiperidin-3-yl)-1-oxoisoindolin-4-yl)oxy)ethoxy)ethyl)piperazin-1-yl)cyclohexyl)-3-methoxybenzamide] the “Activity: ratio” value was “++ (++<0.6)”. In the case of COc1cc(C(=O)NC2CCN(C(=O)CCCCCOC3CN(c4cccc5c4C(=O)N(C4CCC(=O)NC4=O)C5=O)C3)CC2)ccc1Nc1ncc2c(n1)N(C1CCCC1)CC(F)(F)C(=O)N2C (stereo not drawn) [Compound 199, 4-((9-cyclopentyl-7,7-difluoro-5-methyl-6-oxo-6,7,8,9-tetrahydro-5H-pyrimido[4,5-b][1,4]diazepin-2-yl)amino)-N-(1-(6-((1-(2-(2,6-dioxopiperidin-3-yl)-1,3-dioxoisoindolin-4-yl)azetidin-3-yl)oxy)hexanoyl)piperidin-4-yl)-3-methoxybenzamide], the “Activity: ratio” value is reported as “+ (+<0.7)”.
